Experimental data from US6222035A, “[1,2,4] triazolo [1,5-C] pyrimidine derivatives” (Kyowa Hakko Kogyo Co., Ltd., priority 1997, dated 2001).

Tested on: CGS 21680-induced catalepsy in mice
Experiment: Activity on CGS 21680-induced Catalepsy
Format: in vivo, mouse (male ddY)
Settings: 10 mg/kg oral; for Total score (catalepsy): 10 animals, maximum 50 points, control 48; for Number of Animals showing remission: catalepsy score 4 points or less in 10 cases; for inhibition in vivo at 10 mg/kg: Mus musculus, CGS 21680-induced catalepsy, read-out: Remission ratio (%)
Procedure: Activity on CGS 21680-induced Catalepsy
Parkinson's disease is motor deficit based on the degeneration and cell death of the nigrostriatal dopaminergic neuron. […] [Journal of Neuroscience, 16: 605 (1996)]. Accordingly, it is considered that adenosine A2A receptor agonists positively regulate the output of the striopallidal GABAergic neurons and, as a result, catalepsy is induced by the administration of CGS 21680.
This test was carried out using 10 animals per group of male ddY mice of 5 week age (22 to 25 g in body weight, Japan SLC). CGS 21680 (manufactured by RBI) was dissolved in a physiological saline (manufactured by Otsuka Pharmaceutical), and 10 μg/20 μl of the solution was injected into mouse intracerebro-ventricle. Test compounds were used by suspending them in distilled water containing 0.3% of polyoxyethylene(20)sorbitan monooleate (hereinafter referred to as "Tween 80") (manufactured by Otsuka Pharmaceutical). […] One hour after the administration of the test compound, only forelimbs or only hindlimbs of each animal were laid on a vertically arranged stand made of acryl, having a size of 4.5 cm in height and 1.0 cm in width, to measure catalepsy symptoms. All of the compounds were administered orally in a dose of 10 mg/kg.
The effect was judged by total catalepsy scores of 10 animals in one group (the maximum is 50 points). When the total score was 40 points or less, the activity of drugs was judged positive. The number of animals showing remission of catalepsy was expressed by the number of cases in which the catalepsy score was 4 points or less in 10 cases. The catalepsy remission ratio was expressed as the percentage of the total score in the test compound-administered group to the total score in the control group.

Row | SMILES | Total score (catalepsy) | Number of Animals showing remission | inhibition in vivo at 10 mg/kg
1 | Cc1ncc(CN2CCN(c3cc4nc(-c5ccco5)nn4c(N)n3)CC2)s1 [Compound 145, 5-Amino-2-(2-furyl)-7-(4-(2-methylthiazol-5-ylmethyl)piperazinyl)[1,2,4]triazolo[1,5-c]pyrimidine] | 3 | 10 | 92%
2 | CC(C)CN1CCN(c2cc3nc(-c4ccco4)nn3c(N)n2)CC1 [Compound 136, 5-Amino-2-(2-furyl)-7-(4-(2-methylpropyl)piperazinyl)[1,2,4]triazolo[1,5-c]pyrimidine] | 1 | 10 | 98%
3 | Nc1nc(SCc2ccccc2C=O)cc2nc(-c3ccco3)nn12 [Compound 213, 5-Amino-7-(2-formylbenzylthio)-2-(2-furyl)[1,2,4]triazolo[1,5-c]pyrimidine] | 15 | 10 | 70%
4 | CC(C)N1CCN(c2cc3nc(-c4ccco4)nn3c(N)n2)CC1 [Compound 139, 5-Amino-2-(2-furyl)-7-(4-isopropylpiperazinyl)[1,2,4]triazolo[1,5-c]pyrimidine] | 10 | 9 | 80%
5 | COCCOCCN1CCN(c2cc3nc(-c4ccco4)nn3c(N)n2)CC1 [Compound 104, 5-Amino-2-(2-furyl)-7-(4-(2-(2-methoxyethoxy)ethyl)piperazinyl)[1,2,4]triazolo[1,5-c]pyrimidine] | 4 | 10 | 92%
6 | Nc1nc(N2CCN(CCCCF)CC2)cc2nc(-c3ccco3)nn12 [Compound 128, 5-Amino-7-(4-(4-fluorobutyl)piperazinyl)-2-(2-furyl)[1,2,4]triazolo[1,5-c]pyrimidine] | 9 | 10 | 80%
7 | COC(=O)c1ccc(CSc2cc3nc(-c4ccco4)nn3c(N)n2)cc1 [Compound 190, 5-Amino-2-(2-furyl)-7-(4-methoxycarbonylbenzylthio)[1,2,4]triazolo[1,5-c]pyrimidine] | 13 | 10 | 72%
8 | Nc1nc(SCc2ccncc2)cc2nc(-c3ccco3)nn12 [Compound 181, 5-Amino-2-(2-furyl)-7-(4-picolylthio)[1,2,4]triazolo[1,5-c]pyrimidine] | 14 | 8 | 72%
9 | Nc1nc(N2CCN(Cc3csnn3)CC2)cc2nc(-c3ccco3)nn12 [Compound 143, 5-Amino-2-(2-furyl)-7-(4-(1,2,3-thiadiazol-4-ylmethyl)piperazinyl)-2-(2-furyl)[1,2,4]triazolo[1,5-c]pyrimidine] | 0 | 10 | 98%
10 | Nc1nc(SCc2ccccc2Cl)cc2nc(-c3ccco3)nn12 [Compound 200, 5-Amino-7-(2-chlorobenzylthio)-2-(2-furyl)[1,2,4]triazolo[1,5-c]pyrimidine] | 14 | 9 | 70%
11 | Nc1nc(N2CCN(c3nc4ccccc4s3)CC2)cc2nc(-c3ccco3)nn12 [Compound 95, 5-Amino-7-(4-(2-benzothiazolyl)piperazinyl)-2-(2-furyl)[1,2,4]triazolo[1,5-c]pyrimidine] | 16 | 8 | 66%
12 | C=CCCN1CCN(c2cc3nc(-c4ccco4)nn3c(N)n2)CC1 [Compound 125, 5-Amino-2-(2-furyl)-7-(4-homoallylpiperazinyl)[1,2,4]triazolo[1,5-c]pyrimidine] | 13 | 10 | 74%
13 | Nc1nc(N2CCN(Cc3ccsc3)CC2)cc2nc(-c3ccco3)nn12 [Compound 146] | 3 | 10 | 94%
14 | Nc1nc(Oc2ccc(Br)cc2)cc2nc(-c3ccco3)nn12 [Compound 228] | 14 | 8 | 72%
15 | Nc1nc(SCc2ccccc2F)cc2nc(-c3ccco3)nn12 [Compound 201, 5-Amino-7-(2-fluorobenzylthio)-2-(2-furyl)[1,2,4]triazolo[1,5-c]pyrimidine] | 10 | 10 | 78%
16 | CCC(C)N1CCN(c2cc3nc(-c4ccco4)nn3c(N)n2)CC1 (racemic) [Compound 140, (±)-5-Amino-2-(2-furyl)-7-(4-(1-methylpropyl)piperazinyl)[1,2,4]triazolo[1,5-c]pyrimidine] | 13 | 10 | 74%
17 | CCN1CCN(c2cc3nc(-c4ccco4)nn3c(N)n2)CC1 [Compound 60, 5-Amino-7-(4-ethylpiperazinyl)-2-(2-furyl)[1,2,4]triazolo[1,5-c]pyrimidine] | 10 | 8 | 76%
18 | Nc1ncc(C=O)c2nc(-c3ccco3)nn12 [Compound 163, 5-Amino-8-formyl-2-(2-furyl)[1,2,4]triazolo[1,5-c]pyrimidine] | 3 | 10 | 94%
19 | Nc1ncc(C(=O)N2CCCCC2)c2nc(-c3ccco3)nn12 [Compound 175] | 12 | 10 | 74%
20 | Nc1nc(N2CCN(c3ncccn3)CC2)cc2nc(-c3ccco3)nn12 [Compound 64, 5-Amino-2-(2-furyl)-7-[4-(2-pyrimidyl)piperazinyl][1,2,4]triazolo[1,5-c]pyrimidine] | 5 | 10 | 88%
21 | Nc1nc(N2CCN(CCO)CC2)cc2nc(-c3ccco3)nn12 [Compound 62, 5-Amino-2-(2-furyl)-7-[4-(2-hydroxyethyl)piperazinyl][1,2,4]triazolo[1,5-c]pyrimidine] | 4 | 10 | 88%
22 | Nc1ncc(C(=O)N2CCOCC2)c2nc(-c3ccco3)nn12 [Compound 177] | 13 | 9 | 72%
23 | COCCN1CCN(c2cc3nc(-c4ccco4)nn3c(N)n2)CC1 [Compound 74, 5-Amino-7-[4-(2-methoxyethyl)piperazinyl]-2-(2-furyl)[1,2,4]triazolo[1,5-c]pyrimidine] | 0 | 10 | 98%
24 | Cc1c(N2CCN(CCO)CC2)nc(N)n2nc(-c3ccco3)nc12 [Compound 222, 5-Amino-2-(2-furyl)-7-(4-(2-hydroxyethyl)piperazinyl)-8-methyl[1,2,4]triazolo[1,5-c]pyrimidine] | 9 | 10 | 80%
25 | COCCN1CCN(c2nc(N)n3nc(-c4ccco4)nc3c2C)CC1 [Compound 223, 5-Amino-2-(2-furyl)-7-(4-(2-methoxyethyl)piperazinyl)-8-methyl[1,2,4]triazolo[1,5-c]pyrimidine] | 15 | 9 | 68%
